In paper PMC5218480 (PLoS ONE, 2017):

Tested on: MV-4-11 cells
Test: Gene expression microarray analysis (Affymetrix PrimeView) and GSEA
Assay type: cell-based, human
Set-up: RFU PODN (11730768_x_at) / Fold change /veh PODN (11730768_x_at) / RFU LINC00158 (11744669_a_at) / Fold change /veh LINC00158 (11744669_a_at) / RFU DUSP10 (11751237_a_at) / Fold change /veh DUSP10 (11751237_a_at) / RFU ID3 (11757404_x_at) / Fold change /veh ID3 (11757404_x_at) / RFU PLEKHG5 (11737974_s_at) / Fold change /veh PLEKHG5 (11737974_s_at) / RFU LRRC4B (11730491_at) / Fold change /veh LRRC4B (11730491_at) / RFU GIMAP4 (11747438_a_at) / Fold change /veh GIMAP4 (11747438_a_at) / RFU KRT8 (11758183_x_at) / Fold change /veh KRT8 (11758183_x_at) / RFU CNN1 (11734310_a_at) / Fold change /veh CNN1 (11734310_a_at) / RFU VPS37D (11726825_at) / Fold change /veh VPS37D (11726825_at) / RFU C10orf10 (11716522_x_at) / Fold change /veh C10orf10 (11716522_x_at) / RFU KIR2DL2 /// KIR2DL4 /// KIR2DL5A /// KIR2DL5B /// KIR2DS1 /// KIR2DS2 /// KIR2DS3 /// KIR2DS4 /// KIR3DL3 /// KIR3DL3 /// KIR3DS1 (11738374_at) / Fold change /veh KIR2DL2 /// KIR2DL4 /// KIR2DL5A /// KIR2DL5B /// KIR2DS1 /// KIR2DS2 /// KIR2DS3 /// KIR2DS4 /// KIR3DL3 /// KIR3DL3 /// KIR3DS1 (11738374_at) / RFU C1QL1 (11718748_at) / Fold change /veh C1QL1 (11718748_at) / RFU TMPRSS4 (11747572_a_at) / Fold change /veh TMPRSS4 (11747572_a_at) / RFU HAMP (11756126_x_at) / Fold change /veh HAMP (11756126_x_at) / RFU RNFT2 (11725882_a_at) / Fold change /veh RNFT2 (11725882_a_at) / RFU NR4A2 (11747474_a_at) / Fold change /veh NR4A2 (11747474_a_at) / RFU ABCC12 (11746883_a_at) / Fold change /veh ABCC12 (11746883_a_at) / RFU TMEM136 (11760407_x_at) / Fold change /veh TMEM136 (11760407_x_at) / RFU CLDN22 /// WWC2 (11732394_at) / Fold change /veh CLDN22 /// WWC2 (11732394_at) / RFU HLA-DPB1 (11760878_x_at) / Fold change /veh HLA-DPB1 (11760878_x_at) / RFU SPINT1 (11716480_a_at) / Fold change /veh SPINT1 (11716480_a_at) / RFU GAP43 (11754022_s_at) / Fold change /veh GAP43 (11754022_s_at) / RFU A4GNT (11735810_at) / Fold change /veh A4GNT (11735810_at) / RFU PRB3 (11715151_x_at) / Fold change /veh PRB3 (11715151_x_at) / RFU TUBB4B (11761932_at) / Fold change /veh TUBB4B (11761932_at) / RFU CAPN14 (11732068_a_at) / Fold change /veh CAPN14 (11732068_a_at) / RFU TMCC2 (11721928_a_at) / Fold change /veh TMCC2 (11721928_a_at) / RFU IRGQ (11745062_a_at) / Fold change /veh IRGQ (11745062_a_at) / RFU FAM174B (11720279_a_at) / Fold change /veh FAM174B (11720279_a_at) / RFU TMPRSS4 (11748680_a_at) / Fold change /veh TMPRSS4 (11748680_a_at) / RFU FAM212B (11763350_a_at) / Fold change /veh FAM212B (11763350_a_at) / RFU PLEKHG5 (11743358_a_at) / Fold change /veh PLEKHG5 (11743358_a_at) / RFU ZSCAN30 (11745921_a_at) / Fold change /veh ZSCAN30 (11745921_a_at) / RFU CMKLR1 (11741424_a_at) / Fold change /veh CMKLR1 (11741424_a_at) / RFU LOC101060620 /// MAPK8IP1 (11723275_at) / Fold change /veh LOC101060620 /// MAPK8IP1 (11723275_at) / RFU SPTSSB (11747773_x_at) / Fold change /veh SPTSSB (11747773_x_at) / RFU PRSS12 (11739890_at) / Fold change /veh PRSS12 (11739890_at) / RFU BIN1 (11741810_x_at) / Fold change /veh BIN1 (11741810_x_at) / RFU WNT11 (11732464_a_at) / Fold change /veh WNT11 (11732464_a_at) / RFU C10orf10 (11716521_a_at) / Fold change /veh C10orf10 (11716521_a_at) / RFU C5orf56 (11738089_at) / Fold change /veh C5orf56 (11738089_at) / RFU CYB561 (11721691_x_at) / Fold change /veh CYB561 (11721691_x_at) / RFU ANKRD19P (11752326_a_at) / Fold change /veh ANKRD19P (11752326_a_at) / RFU OR2T12 /// OR2T33 /// OR2T8 (11738714_s_at) / Fold change /veh OR2T12 /// OR2T33 /// OR2T8 (11738714_s_at) / RFU VCAN (11748164_a_at) / Fold change /veh VCAN (11748164_a_at) / RFU JSRP1 (11732532_at) / Fold change /veh JSRP1 (11732532_at) / RFU KRTAP10-11 (11738290_x_at) / Fold change /veh KRTAP10-11 (11738290_x_at) / RFU MYO3A (11730013_a_at) / Fold change /veh MYO3A (11730013_a_at) / RFU EBF3 (11725865_a_at) / Fold change /veh EBF3 (11725865_a_at) / RFU CAMK2N1 (11719241_x_at) / Fold change /veh CAMK2N1 (11719241_x_at) / RFU C5orf56 (11738088_a_at) / Fold change /veh C5orf56 (11738088_a_at) / RFU OLFML3 (11715873_a_at) / Fold change /veh OLFML3 (11715873_a_at) / RFU LOC100653217 /// NTM (11731650_a_at) / Fold change /veh LOC100653217 /// NTM (11731650_a_at) / RFU MAPK11 (11762145_a_at) / Fold change /veh MAPK11 (11762145_a_at) / RFU FIZ1 (11724087_x_at) / Fold change /veh FIZ1 (11724087_x_at) / RFU OASL (11726364_x_at) / Fold change /veh OASL (11726364_x_at) / RFU SOX15 (11748057_x_at) / Fold change /veh SOX15 (11748057_x_at) / RFU CD79A (11719716_a_at) / Fold change /veh CD79A (11719716_a_at) / RFU HIST1H1D (11736915_at) / Fold change /veh HIST1H1D (11736915_at) / RFU CASKIN2 (11723855_a_at) / Fold change /veh CASKIN2 (11723855_a_at) / RFU LOC730098 (11760151_x_at) / Fold change /veh LOC730098 (11760151_x_at) / RFU OR4N2 (11742367_at) / Fold change /veh OR4N2 (11742367_at) / RFU PRRT2 (11749266_a_at) / Fold change /veh PRRT2 (11749266_a_at) / RFU SNX32 (11753110_a_at) / Fold change /veh SNX32 (11753110_a_at) / RFU CDHR5 (11726645_a_at) / Fold change /veh CDHR5 (11726645_a_at) / RFU RCAN1 (11760418_a_at) / Fold change /veh RCAN1 (11760418_a_at) / RFU FAM167A (11723789_a_at) / Fold change /veh FAM167A (11723789_a_at) / RFU FAM26E (11764081_at) / Fold change /veh FAM26E (11764081_at) / RFU ISYNA1 (11749810_s_at) / Fold change /veh ISYNA1 (11749810_s_at) / RFU ACY1 (11761880_at) / Fold change /veh ACY1 (11761880_at) / RFU 11764098_at / Fold change /veh 11764098_at / RFU SAMD14 (11745864_x_at) / Fold change /veh SAMD14 (11745864_x_at) / RFU NPB (11741838_a_at) / Fold change /veh NPB (11741838_a_at) / RFU TMPRSS6 (11731388_a_at) / Fold change /veh TMPRSS6 (11731388_a_at) / RFU KRTAP10-2 (11738614_at) / Fold change /veh KRTAP10-2 (11738614_at) / RFU ARHGAP8 /// PRR5-ARHGAP8 (11727945_x_at) / Fold change /veh ARHGAP8 /// PRR5-ARHGAP8 (11727945_x_at) / RFU KRTAP5-7 /// NADSYN1 (11734609_at) / Fold change /veh KRTAP5-7 /// NADSYN1 (11734609_at) / RFU RASL12 (11751679_a_at) / Fold change /veh RASL12 (11751679_a_at) / RFU CDKN2B (11736163_a_at) / Fold change /veh CDKN2B (11736163_a_at) / RFU PRF1 (11729649_at) / Fold change /veh PRF1 (11729649_at) / RFU, ZNF638 /// ZNF638-IT1 / Fold change vs veh, ZNF638 /// ZNF638-IT1 / RFU, PANK3 / Fold change vs veh, PANK3 / RFU, SH3YL1 / Fold change vs veh, SH3YL1 / RFU, ZEB2 / Fold change vs veh, ZEB2 / RFU, NRIP1 / Fold change vs veh, NRIP1 / RFU, PTTG1IP / Fold change vs veh, PTTG1IP / RFU, CAPN2 / Fold change vs veh, CAPN2 / RFU, MED14 / Fold change vs veh, MED14 / RFU, SNORA58 / Fold change vs veh, SNORA58 / RFU, C1orf63 / Fold change vs veh, C1orf63 / RFU, LRRFIP1 / Fold change vs veh, LRRFIP1 / RFU, NDUFAF7 / Fold change vs veh, NDUFAF7 / RFU, SLC12A2 / Fold change vs veh, SLC12A2 / RFU, IBTK / Fold change vs veh, IBTK / RFU, ESF1 / Fold change vs veh, ESF1 / Fold change vs veh, TMEM50B / RFU, TAOK1 / Fold change vs veh, TAOK1 / RFU, ACBD3 / Fold change vs veh, ACBD3 / RFU, TMA16 / Fold change vs veh, TMA16 / RFU, RWDD3 / Fold change vs veh, RWDD3 / RFU, BCAT1 / Fold change vs veh, BCAT1 / RFU, EDEM3 / Fold change vs veh, EDEM3 / RFU, TMEM33 / Fold change vs veh, TMEM33 / RFU, WDR75 / Fold change vs veh, WDR75 / RFU, AHCTF1 / Fold change vs veh, AHCTF1 / RFU, TFRC / Fold change vs veh, TFRC / RFU, ZDHHC17 / Fold change vs veh, ZDHHC17 / RFU, NOM1 / Fold change vs veh, NOM1 / RFU, ARL8B / Fold change vs veh, ARL8B / RFU, ZBTB11 / Fold change vs veh, ZBTB11 / RFU, TAMM41 / Fold change vs veh, TAMM41 / RFU, KIAA1704 /// LOC100996395 / Fold change vs veh, KIAA1704 /// LOC100996395 / RFU, ING1 / Fold change vs veh, ING1 / RFU, TRMT61B / Fold change vs veh, TRMT61B / RFU, FUBP3 / Fold change vs veh, FUBP3 / RFU, TP53 / Fold change vs veh, TP53 / RFU, TNKS2 / Fold change vs veh, TNKS2 / RFU, ZFP14 / Fold change vs veh, ZFP14 / RFU, ACTR2 / Fold change vs veh, ACTR2 / RFU, PPP3R1 / Fold change vs veh, PPP3R1 / RFU, PIK3R1 / Fold change vs veh, PIK3R1 / RFU, HNRNPA1 / Fold change vs veh, HNRNPA1 / RFU, RNF170 / Fold change vs veh, RNF170 / RFU, ZNF28 / Fold change vs veh, ZNF28 / RFU, RNGTT / Fold change vs veh, RNGTT / RFU, OGT / Fold change vs veh, OGT / RFU, BRD1 / Fold change vs veh, BRD1 / RFU, MARS / Fold change vs veh, MARS / RFU, ZNF655 / Fold change vs veh, ZNF655 / RFU, FAHD1 / Fold change vs veh, FAHD1 / RFU, BDP1 / Fold change vs veh, BDP1 / RFU, LRRCC1 / Fold change vs veh, LRRCC1 / RFU, ARID1A / Fold change vs veh, ARID1A / RFU, ZNF146 / Fold change vs veh, ZNF146 / RFU, ZNF330 / Fold change vs veh, ZNF330 / RFU, GPN3 / Fold change vs veh, GPN3 / RFU, C9orf123 / Fold change vs veh, C9orf123 / RFU, N4BP2L2 / Fold change vs veh, N4BP2L2 / RFU, ARFIP1 / Fold change vs veh, ARFIP1 / RFU, FAM179B / Fold change vs veh, FAM179B / RFU, BCL10 / Fold change vs veh, BCL10 / RFU, UHRF1BP1L / Fold change vs veh, UHRF1BP1L / RFU, BET1 / Fold change vs veh, BET1 / RFU, CNOT2 / Fold change vs veh, CNOT2 / RFU, ZNF268 / Fold change vs veh, ZNF268 / Fold change vs veh, ZNF507 / RFU, DGCR2 / Fold change vs veh, DGCR2 / RFU, WDSUB1 / Fold change vs veh, WDSUB1 / Fold change vs veh, HSP90B1 /// MIR3652 / RFU, ADSS / Fold change vs veh, ADSS / RFU, GK / Fold change vs veh, GK / RFU, ZNF148 / Fold change vs veh, ZNF148 / RFU, TAF9 / Fold change vs veh, TAF9 / RFU, SLC1A5 / Fold change vs veh, SLC1A5 / RFU, SLMO2 / Fold change vs veh, SLMO2 / RFU, ABCC4 / Fold change vs veh, ABCC4 / RFU, LOC101060439 /// RAP1B / Fold change vs veh, LOC101060439 /// RAP1B / RFU, RFX7 / Fold change vs veh, RFX7 / RFU, GTPBP10 / Fold change vs veh, GTPBP10 / RFU, CNEP1R1 / Fold change vs veh, CNEP1R1 / RFU, BIVM-ERCC5 /// ERCC5 / Fold change vs veh, BIVM-ERCC5 /// ERCC5 / RFU, ILF3 / Fold change vs veh, ILF3 / RFU 11762660_at / Fold change /veh 11762660_at / RFU VCAN (11757783_s_at) / Fold change /veh VCAN (11757783_s_at) / RFU DDX43 (11728927_at) / Fold change /veh DDX43 (11728927_at) / RFU KRT8 (11758188_x_at) / Fold change /veh KRT8 (11758188_x_at) / RFU NKD1 (11759106_at) / Fold change /veh NKD1 (11759106_at) / RFU SRD5A1 (11742802_a_at) / Fold change /veh SRD5A1 (11742802_a_at) / RFU TPSAB1 /// TPSB2 (11721975_s_at) / Fold change /veh TPSAB1 /// TPSB2 (11721975_s_at) / RFU GSTM3 (11746129_a_at) / Fold change /veh GSTM3 (11746129_a_at) / RFU IL23R (11737362_x_at) / Fold change /veh IL23R (11737362_x_at) / RFU TMEM51 (11727254_a_at) / Fold change /veh TMEM51 (11727254_a_at) / RFU PIWIL2 (11732686_x_at) / Fold change /veh PIWIL2 (11732686_x_at) / RFU ORM1 (11744905_x_at) / Fold change /veh ORM1 (11744905_x_at) / RFU CCDC152 (11743942_at) / Fold change /veh CCDC152 (11743942_at) / RFU ECM1 (11717891_a_at) / Fold change /veh ECM1 (11717891_a_at) / RFU IL23R (11748794_a_at) / Fold change /veh IL23R (11748794_a_at) / RFU TNFAIP8L3 (11732012_x_at) / Fold change /veh TNFAIP8L3 (11732012_x_at) / RFU MBOAT4 (11741988_at) / Fold change /veh MBOAT4 (11741988_at) / RFU 11764193_at / Fold change /veh 11764193_at / RFU TMEM53 (11763286_at) / Fold change /veh TMEM53 (11763286_at) / RFU MAGEB2 (11727129_at) / Fold change /veh MAGEB2 (11727129_at) / RFU TMEM200A (11744735_a_at) / Fold change /veh TMEM200A (11744735_a_at) / RFU CCDC152 (11751479_a_at) / Fold change /veh CCDC152 (11751479_a_at) / RFU FAM211A (11726209_a_at) / Fold change /veh FAM211A (11726209_a_at) / RFU RGS16 (11746705_a_at) / Fold change /veh RGS16 (11746705_a_at) / RFU VCAN (11755009_s_at) / Fold change /veh VCAN (11755009_s_at) / RFU RHOB (11743442_s_at) / Fold change /veh RHOB (11743442_s_at) / RFU RGS16 (11720943_a_at) / Fold change /veh RGS16 (11720943_a_at) / RFU RGS16 (11720944_at) / Fold change /veh RGS16 (11720944_at) / RFU, VPS4B / Fold change vs veh, VPS4B / RFU, CREB1 / Fold change vs veh, CREB1 / RFU, DNAJC13 / Fold change vs veh, DNAJC13 / RFU, GNAQ / Fold change vs veh, GNAQ / RFU, CDK5R1 / Fold change vs veh, CDK5R1 / RFU, ZRANB3 / Fold change vs veh, ZRANB3 / RFU, CUL4A / Fold change vs veh, CUL4A / RFU, CCNY / Fold change vs veh, CCNY / RFU, UFL1 / Fold change vs veh, UFL1 / RFU, COG3 / Fold change vs veh, COG3 / RFU, DIAPH2 / Fold change vs veh, DIAPH2 / RFU, SKA2 / Fold change vs veh, SKA2 / RFU, AFF3 / Fold change vs veh, AFF3 / RFU, LMF1 / Fold change vs veh, LMF1 / RFU, IPO11 / Fold change vs veh, IPO11 / RFU, DFFB / Fold change vs veh, DFFB / RFU, FOXP1 / Fold change vs veh, FOXP1 / RFU, CARD8 / Fold change vs veh, CARD8 / RFU, STRN3 / Fold change vs veh, STRN3 / RFU, ADK / Fold change vs veh, ADK / RFU, RASSF2 / Fold change vs veh, RASSF2 / RFU, WIPF1 / Fold change vs veh, WIPF1 / RFU, LARP1B / Fold change vs veh, LARP1B / RFU, RASA1 / Fold change vs veh, RASA1 / RFU, RB1 / Fold change vs veh, RB1 / RFU, PPFIA1 / Fold change vs veh, PPFIA1 / RFU, MAT2A / Fold change vs veh, MAT2A / RFU, CCT5 / Fold change vs veh, CCT5 / RFU, WDR92 / Fold change vs veh, WDR92 / RFU, CUX1 / Fold change vs veh, CUX1 / RFU, TTC7A / Fold change vs veh, TTC7A / RFU, TMEM135 / Fold change vs veh, TMEM135 / RFU, DEPTOR / Fold change vs veh, DEPTOR / RFU, CPM / Fold change vs veh, CPM / RFU, DNAJB6 / Fold change vs veh, DNAJB6 / RFU, CACNA2D3 / Fold change vs veh, CACNA2D3 / RFU, DTX4 / Fold change vs veh, DTX4 / RFU, TFCP2 / Fold change vs veh, TFCP2 / RFU, GMCL1 /// GMCL1P1 / Fold change vs veh, GMCL1 /// GMCL1P1 / RFU, AEBP2 / Fold change vs veh, AEBP2 / RFU, SNHG1 /// SNORD22 /// SNORD25 /// SNORD26 /// SNORD27 /// SNORD28 /// SNORD29 /// SNORD31 / Fold change vs veh, SNHG1 /// SNORD22 /// SNORD25 /// SNORD26 /// SNORD27 /// SNORD28 /// SNORD29 /// SNORD31 / Fold change (Aza/veh), C12orf56 (ProbeSet 11735607_a_at) / Fold change (ACY-1035/veh), C12orf56 (ProbeSet 11735607_a_at) / Fold change (Aza/veh), FGFR1OP (ProbeSet 11751329_s_at) / Fold change (ACY-1035/veh), FGFR1OP (ProbeSet 11751329_s_at) / Fold change (Aza/veh), VPS36 (ProbeSet 11739960_a_at) / Fold change (ACY-1035/veh), VPS36 (ProbeSet 11739960_a_at) / RFU SYPL1 (11715823_x_at) / Fold change /veh SYPL1 (11715823_x_at) / RFU IGFBP7 (11715501_s_at) / Fold change /veh IGFBP7 (11715501_s_at) / RFU REEP3 (11722064_at) / Fold change /veh REEP3 (11722064_at) / RFU IGLL1 (11728026_x_at) / Fold change /veh IGLL1 (11728026_x_at): dose or concentration left out as unconfirmed
Settings: ProbeSet 11725141_a_at; LIST B

SMILES: Nc1ccc(-c2cccs2)cc1NC(=O)c1ccc2c(c1)cc(C1CC1)n2CCN1CCOCC1 [ACY-1035]
- RFU, FUBP3: 490.19 RFU
